Assay: Dissolution profiles of hydrocortisone (CCN90306A) Accudep Cores (paddles, 75 rpm, distilled water)
Format: physicochemical
Details: 1 mg CCN90306A, vs control core, 75 rpm paddles, n=3, FIG. 7
Experimental: Accudep™ Cores were made as follows: Control Accudep™ Core: Sealed a 1 mg deposition of CCN90306A between two polymer sheets with the following composition: 45% HPMC, 45% HPC, 10% PEG.

- dissolution at 20- and 30-minute sample points (Polysorbate 80 incorporated in film Accudep Core (20%)): faster dissolution
- dissolution at 20- and 30-minute sample points (SLS incorporated in film Accudep Core (20% SLS)): faster dissolution
Compound: C[C@]12CCC(=O)C=C1CC[C@@H]1[C@@H]2[C@@H](O)C[C@@]2(C)[C@H]1CC[C@]2(O)C(=O)CO [CCN90306A, Hydrocortisone]

Source: US20020036154A1, “Solid pharmaceutical dosage formulation of hydrophobic drugs” (priority 2000, published 2002)
